According to patent EP4566610A1, “SENOLYTIC COMPOUNDS” (Universidade de Santiago de Compostela, priority 2023, dated 2025):
One block for each compound: values may come before it.

How the values were obtained:
[1] = system: U87MG cells induced into senescence with palbociclib; assay: Crystal violet cell viability / IC50 assay in palbociclib-induced senescent U87MG cells; format: cell-based, human
Procedure: (§1) Navitoclax (ABT-263, Abbvie) was used as a positive control for senolysis. For chemotherapy-induced senescence we used Bleomycin (Mylan Pharmaceuticals) at 20 µM for 5 days. Alternatively, we also used 5 µM Palbociclib (MedChemExpress) for 7 days. Ionizing radiation at a dose of 10 Gy was applied to induce senescence. Doxycycline (Sigma), a stable tetracycline analogue, was used as an inducer for inducible expression systems at 1 µg/mL.
Cell viability was tested by crystal violet staining as reported previously (Feoktistova et al. 2016). Both proliferative and senescent cells from different cell lines were plated at a concentration of 1,2 × 10^4 cells per well in a 96-well plate. After a 24 h incubation period, they were treated with Compound 96558 at decreasing concentrations (with DMSO as the control) and at various time points. Subsequently, cells were washed with phosphate-buffered saline (PBS, Merck) and fixed with paraformaldehyde (Electron Microscopy Science) prepared at 2% in PBS for 15 minutes, followed by a 5 min staining process using a 0.1% crystal violet solution in Milli-Q water. After staining, the excess dye was removed, washed 3 times with water, and air dried. […] The absorbance was measured using a BioTek microplate reader equipped with Gen5 software.
Cell viability was evaluated following the previously mentioned protocol of crystal violet staining. […]

A549 proliferative cells = assay: Apoptosis assay (Annexin V-FITC/7-AAD flow cytometry) in proliferative A549 cells; format: cell-based, human; conditions: 10 µM, 24 h
Procedure: (§2) A549 cells were resuspended into a single-cell suspension and plated at a density of 3 × 10^5 cells per well in six-well plates. After culturing for 24 h, the cells were treated with DMSO (control), the Compound, or a combination of pan-caspase inhibitor Z-VAD-FMK (Santa Cruz Biotech.) and the Compound. Following a 24 h incubation with the drugs, the cells were harvested by centrifugation at 3,000 rpm for 5 minutes and washed twice with PBS. Subsequently, the cells were resuspended in 500 µl of binding buffer. Then, 5 µl of Annexin V-FITC and 5 µl of 7-AAD (Elabscience) were used to detect the effect of Compound 96558 on cell apoptosis. The resulting samples were immediately analyzed by flow cytometry (FACScan, BD Biosciences), using the FITC channel (excitation: 488 nm and emission: 525 nm) and the 7-AAD channel (excitation: 488 nm and emission: 670 nm).
(§3) To investigate the potential mechanism of cell death by which the compound eliminates senescent cells, we analyzed apoptosis induction. For this, we conducted a flow cytometry assay to evaluate Annexin-V staining on bleomycin-induced senescent cells treated or not with our senolytic Candidate.

[2] = system: U87MG glioma cell line, proliferating cells; assay: Crystal violet cell viability / IC50 assay in proliferating U87MG cells; format: cell-based; conditions: Homo sapiens, U-87 MG, read-out: quantity required to eliminate at least 50% of proliferative counterparts
Procedure: (§4) Cell viability was tested by crystal violet staining as reported previously (Feoktistova et al. 2016). Both proliferative and senescent cells from different cell lines were plated at a concentration of 1,2 × 10^4 cells per well in a 96-well plate. After a 24 h incubation period, they were treated with Compound 96558 at decreasing concentrations (with DMSO as the control) and at various time points. Subsequently, cells were washed with phosphate-buffered saline (PBS, Merck) and fixed with paraformaldehyde (Electron Microscopy Science) prepared at 2% in PBS for 15 minutes, followed by a 5 min staining process using a 0.1% crystal violet solution in Milli-Q water. After staining, the excess dye was removed, washed 3 times with water, and air dried. Captured crystal violet was solubilized in 10% acetic acid and incubated on an orbital shaker at room temperature for 10 min. The absorbance was measured using a BioTek microplate reader equipped with Gen5 software.
(§5) Cell viability was evaluated following the previously mentioned protocol of crystal violet staining. The IC50 calculations were performed using GraphPad Prism® software.
To thoroughly explore the senolytic potential of Compound 96558, we employed a different human tumor cell line, specifically the U87MG glioma cell line. […]

[3] = system: A549 tumor cells, non-treated (proliferating) state; assay: Crystal violet cell viability / IC50 assay in proliferative A549 cells; format: cell-based, human
Procedure: as §4, §5
(§6) First, we sought to validate the senolytic potential of the Candidate Compound within the same cell type and under the same conditions of senescence induction as employed during the high-throughput screening. To achieve this, we used A549 cells in which senescence was induced using bleomycin (20 µM; 5 days). Subsequently, following the confirmation of the senescent status of these cells in comparison to the proliferative control (Figure 8A), a cell viability assay was performed, employing crystal violet staining, as detailed in the Materials and Methods section.
(§7) After evaluating the senolytic activity of the Candidate Compound at the same concentration used in the screening (Figure 9), we conducted further tests using a range of concentrations, from 100 µM to 0.3125 µM, in A549 tumor cells. […] In addition, we also assessed the drug's ability to affect cell viability at different time points (24, 48, and 72 hours) by renewing the Compound every 24 hours.

[4] = system: A549 Bleomycin-Induced Senescent Cells; assay: Crystal violet cell viability / IC50 assay in bleomycin-induced senescent A549 cells; format: cell-based, human; conditions: for IC50: Homo sapiens, A549
Procedure: Navitoclax (ABT-263, Abbvie) was used as a positive control for senolysis. For chemotherapy-induced senescence we used Bleomycin (Mylan Pharmaceuticals) at 20 µM for 5 days. Alternatively, we also used 5 µM Palbociclib (MedChemExpress) for 7 days. Ionizing radiation at a dose of 10 Gy was applied to induce senescence. Doxycycline (Sigma), a stable tetracycline analogue, was used as an inducer for inducible expression systems at 1 µg/mL. Cell viability was tested by crystal violet staining as reported previously (Feoktistova et al. 2016). Both proliferative and senescent cells from different cell lines were plated at a concentration of 1,2 × 10^4 cells per well in a 96-well plate. After a 24 h incubation period, they were treated with Compound 96558 at decreasing concentrations (with DMSO as the control) and at various time points. […] After staining, the excess dye was removed, washed 3 times with water, and air dried. […] The absorbance was measured using a BioTek microplate reader equipped with Gen5 software. […] Cell viability was evaluated following the previously mentioned protocol of crystal violet staining. The IC50 calculations were performed using GraphPad Prism® software. First, we sought to validate the senolytic potential of the Candidate Compound within the same cell type and under the same conditions of senescence induction as employed during the high-throughput screening. To achieve this, we used A549 cells in which senescence was induced using bleomycin (20 µM; 5 days). Subsequently, following the confirmation of the senescent status of these cells in comparison to the proliferative control (Figure 8A), a cell viability assay was performed, employing crystal violet staining, as detailed in the Materials and Methods section. After evaluating the senolytic activity of the Candidate Compound at the same concentration used in the screening (Figure 9), we conducted further tests using a range of concentrations, from 100 µM to 0.3125 µM, in A549 tumor cells. These tests were performed both in their non-treated (proliferating) state and after the induction of senescence with Bleomycin. In addition, we also assessed the drug's ability to affect cell viability at different time points (24, 48, and 72 hours) by renewing the Compound every 24 hours.

[5] = system: Radiation-Induced senescent A549cells; assay: Crystal violet cell viability / IC50 assay in ionizing radiation-induced senescent A549 cells; format: cell-based, human; conditions: for concentration showing enhanced efficacy (greater cytotoxic effect on senescent cells than proliferating): ionizing radiation 10 Gy
Procedure: as §1, §4, §5
Subsequently, we aimed to assess the senolytic capability of our Compound using a senescence induction method different from the previous chemotherapy-induced approach. In this regard, we exposed A549 cells to ionizing radiation, confirmed the senescent status (Figure 8B) and conducted a similar assay as described previously.

senescent A549 cells = assay: Apoptosis assay (Annexin V-FITC/7-AAD flow cytometry) in bleomycin-induced senescent A549 cells; format: cell-based, human
Procedure: as §2, §3

[6] = Crystal violet cell viability / IC50 assay in proliferative A549 cells; format: cell-based, human; conditions: human, A549 tumor cells, non-treated (proliferating); untreated (proliferative) cells, at the tested concentration
Procedure: as §4, §5, §6, §7

IC50 ([1]; Homo sapiens, U-87 MG, senescent cells, palbociclib-induced): 1790 nM
IC50 values observed for proliferative cells ([3]; compared with senescent cells, 24, 48 and 72 hours): consistently higher
senolytic index, the ratio between the IC50 values on proliferating cells over senescent ones ([4]; A549, bleomycin, 24, 48, 72 hours): increases with time
IC50 ([4]; senescent cells, 24-hour): 3730 nM
IC50 ([4]; senescent cells, 48 hours of treatment): 1830 nM
IC50 ([4]; senescent cells, 72 hours): 1410 nM
Compound: C#CC(=O)NCCNc1nc(C)nc(C)c1Br [Compound 96558]
senolytic index ([1]; U87MG, IC50 proliferating over senescent): 16.6
apoptosis induction (A549 proliferative cells): apoptosis was not induced
IC50 [2]: 29800 nM
viability ([3]; proliferative cells, low concentrations, 24, 48, and 72 hours): intact viability
concentration with effective cytotoxicity in senescent cells with minimal impact on proliferative cells ([4]; 24 hours, bleomycin 20 µM, 5 days): around 12.5 µM
concentration effective for favorable senolytic effect ([4]; 48 hours, Compound renewed every 24 hours): 6.25 µM
most efficient concentration for senolytic effect ([4]; 72 hours, Compound renewed every 24 hours): 3.125 µM
viability ([4]; senescent cells, low concentrations, 24, 48, and 72 hours): efficient elimination of the senescent cells
concentration showing enhanced efficacy (greater cytotoxic effect on senescent cells than proliferating) ([5]; 24-hour): approximately 12.5 µM
concentration showing enhanced efficacy (greater cytotoxic effect on senescent cells than proliferating) ([5]; 48 hours): 2500 nM
concentration showing enhanced efficacy (greater cytotoxic effect on senescent cells than proliferating) ([5]; 72 hours): 2500 nM
IC50 curves ([5]; senescent versus proliferative counterparts, all examined conditions): lower Compound concentrations are required for the eradication of senescent cells
apoptosis induction (FITC-Annexin V-positive and 7-AAD positive) (senescent A549 cells; Compound treatment versus DMSO, 24 h): a significant proportion of cells were in late apoptosis
apoptosis induction (FITC-Annexin V and 7-AAD staining) (senescent A549 cells; combination with pan-caspase inhibitor Z-VAD-FMK): the majority of cells appeared as viable cells

Compound: CC1(C)CCC(c2ccc(Cl)cc2)=C(CN2CCN(c3ccc(C(=O)NS(=O)(=O)c4ccc(N[C@H](CCN5CCOCC5)CSc5ccccc5)c(S(=O)(=O)C(F)(F)F)c4)cc3)CC2)C1 [Navitoclax, reference compound]
viability [6]: ~100%
viability ([4]; Bleomycin-induced senescent cells, at the tested concentration): significantly affected
